Holding throughout (test): DTP human tumour cell line panel, 48 h
Assay [1] deals with TK-10 renal.
Assay [2] relates to DU-145 prostate.
In assay [3] the test system is SW-620 colon.
The test system of assay [4] is SNB-19 CNS.
For assay [5], the system named is RPMI-8226 leukemia.
In assay [6] the test system is LOX IMVI melanoma.
Assay [7] relates to SK-MEL-28 melanoma.
Assay [8] relates to UACC-62 melanoma.
For assay [9], the system named is NCI-H522 lung.
Assay [10] concerns HL-60(TB) leukemia.

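Test compounds were applied to cells in 96-well plates for 48 hours at 5 doses. At the GI50, growth is halved. TGI denotes the concentration required for complete inhibition of growth.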

With `O=C(NC1CCCCC1)c1ccc(Nc2ncnc3c2cnn3-c2ccccc2)cc1`, the GI50 in assay [1] is 16.5 µM; in [2] it was 10.6 µM; in [3], > 100 µM; in assay [4] it was 3.82 µM; in assay [5], > 100 µM; in assay [6], 4.49 µM. In addition, the GI50 in assay [7] is 3.79 µM; in assay [8], 17.5 µM; in assay [9], 6.4 µM. Moreover, the TGI is 49.5 µM in assay [1]; 48.1 µM in assay [2]; > 100 µM in [3]; 18.9 µM in assay [4]; > 100 µM in [5]; 22.3 µM in assay [6]. Moreover, the TGI in assay [7], in [8] and in assay [9] was > 100 µM throughout.

In the case of `Cc1ccc(C)c(N2C(=O)C(=O)C(c3nc4ccccc4o3)/C(=N\NC(=O)c3ccccc3O)C2=O)c1` (centres undefined), the TGI in [1] was > 100 µM; in assay [3] it was > 100 µM; in [4], > 100 µM; in assay [5], 77.8 µM; in [6], > 100 µM; in [7] it was > 100 µM. Further, the TGI in assay [8] was determined as 84.4 µM; in assay [10] it was 31.2 µM; in assay [9] it was 54 µM.

Consider `COc1cc(C(=O)O[C@H](C(N)=O)[C@]2(C)CO2)c2cccc(C)c2c1`, for which the GI50 in [1] is < 0.0406 µM; in assay [2], < 0.017 µM; in [3], < 0.01 µM; in [4], 1.21 µM; in assay [7], 0.0744 µM; in assay [8], 0.02 µM. Moreover, the GI50 in assay [9] was < 0.0342 µM. Besides, the TGI in [2] was found to be 0.0928 µM; in [3], 1.72 µM; in assay [4], 5.02 µM; in assay [7], 1.7 µM; in assay [8], 0.154 µM; in assay [9], 0.638 µM.

Consider `C=CCC1(C)CCCCC1(O)CS(=O)c1ccccc1` (centres undefined), for which the TGI in assay [1], in assay [3], in assay [4], in assay [5], in assay [6] and in assay [7] was > 100 µM throughout. In addition, the TGI in [8], in assay [10] and in assay [9] was > 100 µM throughout.

For `Cc1c(Cl)cccc1NC(=O)c1cccc([N+](=O)[O-])c1O`, the TGI was > 100 µM in assay [1]; > 100 µM in assay [3]; > 100 µM in assay [4]; > 60 µM in [5]; 36.3 µM in [6]; > 77 µM in assay [7]. The values for the TGI in assay [8], in assay [10] and in assay [9] were 7.74 µM, > 49.4 µM and 31.6 µM, respectively.

On to `Cc1sc2c(c1C)C(c1ccc(Cl)cc1)=N[C@@H](CC(=O)Nc1ccc(OCCOCCOCCOCCNc3cccc4c3C(=O)N(C3CCC(=O)NC3=O)C4=O)cc1)c1nnc(C)n1-2` (some centres undefined), for which the GI50 in assay [1] was 0.189 µM; in [2], > 59.3 µM; in assay [3], 0.0787 µM; in [4], < 0.0301 µM; in assay [5] it was < 0.0175 µM; in [6], 0.234 µM. Also, the GI50 in assay [7] is 16.8 µM; in assay [8], < 0.0462 µM; in assay [9], 0.518 µM. Besides, the TGI was > 43.7 µM in [1]; > 100 µM in [2]; > 100 µM in assay [3]; > 100 µM in assay [4]; > 100 µM in [5]; 19.1 µM in [6]. Further, the TGI in assay [7], in [8] and in assay [9] was > 100 µM in each case.

Turning to `CC12CCC(=O)N1c1cccnc1N2` (centres undefined), the TGI in [1], in assay [3], in assay [5], in [6], in assay [7] and in assay [8] was > 100 µM each time. In addition, the TGI in [10] and in [9] was > 100 µM throughout.

`C[P+](C)(C)c1ccccc1`: the TGI in assay [1], in assay [3], in assay [4], in assay [5], in [6] and in assay [7] was > 100 µM in each case. In addition, the TGI in [8] and in assay [10] was > 100 µM in each case.

On to `CCc1nc(Cl)c(Cl)c(Cl)n1`, for which the TGI in assay [1], in assay [3], in assay [4], in [5], in assay [6] and in [7] was > 100 µM throughout. Moreover, the TGI in assay [8] and in [10] was > 100 µM in each case.

Consider `NC(=S)N/N=C1\CCCC\C1=C/c1ccccc1`, for which the TGI is > 100 µM in [1]; > 100 µM in assay [3]; > 100 µM in assay [4]; 38.2 µM in assay [5]; > 100 µM in assay [6]; > 100 µM in assay [7]. Also, the TGI is > 100 µM in assay [8], 4.74 µM in assay [10] and 37.9 µM in assay [9].

As for `COc1ccc(/C=C/c2cnccn2)cc1OC`, the TGI in assay [1], in assay [2], in assay [3], in assay [4], in assay [6] and in assay [7] was > 10 µM each time. Also, the TGI in [8] and in assay [9] was > 10 µM each time.

As for `O=C1C2[C@@H](C(=O)N1c1ccc(Br)cc1)C13C(=CC2([N+](=O)[O-])[C@@H]2C(=O)N(c4ccc(Br)cc4)C(=O)[C@@H]21)c1ccccc1N3c1ccccc1` (some centres undefined), the TGI in [1], in assay [3], in assay [4], in [5], in assay [6] and in assay [7] was > 100 µM in each case. In addition, the TGI in assay [10] and in assay [9] was > 100 µM throughout.

As to `CCOc1ccc(N=Cc2c3ccccc3nc3ccccc23)cc1`, the TGI in assay [1], in [3], in assay [4], in [5], in assay [6] and in assay [7] was > 100 µM each time. Also, the TGI in assay [8] was > 100 µM; in assay [10], 77.2 µM; in [9], > 100 µM.

Source of the values: PubChem BioAssay (NCI).
